From US11845752B2, “Substituted imidazo[1,5-a]pyrazines for the treatment of hepatitis B” (ALIGOS THERAPEUTICS, INC., priority 2020, dated 2023)
Where two headings read alike, the source gives them in different places.

Test system: HBV
Assay: HBV-DNA antiviral assay using HepG2.117 cells (intracellular HBV DNA by qPCR)
Assay type: cell-based, HBV genotype D
Settings: HBV DNA inhibition, 3 days incubation, read-out: EC50
In short: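 HepG2.117 cells (stably integrated genotype D HBV, Tet-off) seeded without doxycycline to induce pgRNA, then treated next day with 9 concentrations (4-fold dilutions, 2% DMSO) for 3 days at 37 °C. Intracellular HBV DNA quantified by qPCR against standard curve, viability by ATP content; inhibition relative to DMSO control, EC50/EC90/CC50 by non-linear regression.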

[1] = Hepatitis B virus, HepG2.117, 72 h

SMILES	EC50 [1] [nM]	EC50 [nM]
C[C@@H]1Cn2c(c(C(=O)NCc3ccccc3-c3ccccn3)n(-c3ccc(OC[C@@](C)(O)C(F)(F)F)cc3)c2=O)CN1C(=O)c1ccc(Br)c(C(F)(F)F)c1 (stereo in doubt) [Compound 89a, rac-(6R)-7-[4-bromo-3-(trifluoromethyl)benzoyl]-6-methyl-3-oxo-N-[[2-(2-pyridyl)phenyl]methyl]-2-[4-[rac-(2R)-3,3,3-trifluoro-2-hydroxy-2-methyl-propoxy]phenyl]-6,8-dihydro-5H-imidazo[1,5-a]pyrazine-1-carboxamide]	< 50	
C[C@H]1Cn2c(c(C(=O)NCc3ccccc3-c3ccccn3)n(-c3ccc(OC[C@@](C)(O)C(F)(F)F)cc3)c2=O)CN1C(=O)c1ccc(Br)c(C(F)(F)F)c1 (stereo in doubt) [Compound 89b, rac-(6S)-7-[4-bromo-3-(trifluoromethyl)benzoyl]-6-methyl-3-oxo-N-[[2-(2-pyridyl)phenyl]methyl]-2-[4-[rac-(2R)-3,3,3-trifluoro-2-hydroxy-2-methyl-propoxy]phenyl]-6,8-dihydro-SH-imidazo[1,5-a]pyrazine-1-carboxamide]	< 50	
C[C@@H]1Cn2c(c(C(=O)NCc3ccccc3-c3ccccn3)n(-c3ccc(OC[C@](C)(O)C(F)(F)F)cc3)c2=O)CN1C(=O)c1ccc(Br)c(C(F)(F)F)c1 (stereo in doubt) [Compound 90a, rac-(6R)-7-[4-bromo-3-(trifluoromethyl)benzoyl]-6-methyl-3-oxo-N-[[2-(2-pyridyl)phenyl]methyl]-2-[4-[rac-(2S)-3,3,3-trifluoro-2-hydroxy-2-methyl-propoxy]phenyl]-6,8-dihydro-5H-imidazo[1,5-a]pyrazine-1-carboxamide]	50 to 500	
C[C@H]1Cn2c(c(C(=O)NCc3ccccc3-c3ccccn3)n(-c3ccc(OC[C@](C)(O)C(F)(F)F)cc3)c2=O)CN1C(=O)c1ccc(Br)c(C(F)(F)F)c1 (stereo in doubt) [Compound 90b, rac-(6S)-7-[4-bromo-3-(trifluoromethyl)benzoyl]-6-methyl-3-oxo-N-[[2-(2-pyridyl)phenyl]methyl]-2-[4-[rac-(2S)-3,3,3-trifluoro-2-hydroxy-2-methyl-propoxy]phenyl]-6,8-dihydro-5H-imidazo[1,5-a]pyrazine-1-carboxamide]	50 to 500	
CC1Cn2c(c(C(=O)NCc3ccccc3-c3ncccn3)n(-c3ccc4c(cnn4C[C@@H](C)O)c3)c2=O)CN1C(=O)c1ccc(Br)c(C(F)(F)F)c1 (stereo in doubt) [Compound 91a, (6R*)-7-[4-bromo-3-(trifluoromethyl)benzoyl]-2-{1-[(2R)-2-hydroxypropyl]indazol-5-yl}-6-methyl-3-oxo-N-{[2-(pyrimidin-2-yl)phenyl]methyl}-5H,6H,8H-imidazo[1,5-a]pyrazine-1-carboxamide]	50 to 500	
CC1Cn2c(c(C(=O)NCc3ccccc3-c3ncccn3)n(-c3ccc4c(cnn4C[C@@H](C)O)c3)c2=O)CN1C(=O)c1ccc(Br)c(C(F)(F)F)c1 (stereo in doubt) [Compound 91b, (6S*)-7-[4-bromo-3-(trifluoromethyl)benzoyl]-2-{1-[(2R)-2-hydroxypropyl]indazol-5-yl}-6-methyl-3-oxo-N-{[2-(pyrimidin-2-yl)phenyl]methyl}-5H,6H,8H-imidazo[1,5-a]pyrazine-1-carboxamide]		50 to 500
O=C(NCc1ccccc1-c1ncccn1)c1c2n(c(=O)n1-c1ccc(OC3CC3)cc1)C[C@@H](COCc1ccccc1)N(C(=O)c1ccc(Br)c(C(F)(F)F)c1)C2 (stereo in doubt) [Compound 130, 6-(benzyloxymethyl)-7-[4-bromo-3-(trifluoromethyl)benzoyl]-2-[4-(cyclopropoxy)phenyl]-3-oxo-N-[(2-pyrimidin-2-ylphenyl)methyl]-6,8-dihydro-5H-imidazo[1,5-a]pyrazine-1-carboxamide]	500 to 5000	
